Data from patent US8697685B2, “Chemical compounds” (GlaxoSmithKline LLC, priority 2008, dated 2014).

Legend:
full length PDK1 [1] = target: T1, full length PDK1 (Homo sapiens, UniProt O15530); test: PDK1 enzyme assays (substrate phosphorylation: LEADseeker scintillation proximity, TR-FRET, PDKtide); type: biochemical; details: in at least one experimental run, read-out: IC50 against full length PDK1
T1 construct: Full-length human 3-Phosphoinositide Dependent protein Kinase-1; made in house; host or cells: baculovirus / Sf9 insect cells
T1 sequence (O15530 1-556): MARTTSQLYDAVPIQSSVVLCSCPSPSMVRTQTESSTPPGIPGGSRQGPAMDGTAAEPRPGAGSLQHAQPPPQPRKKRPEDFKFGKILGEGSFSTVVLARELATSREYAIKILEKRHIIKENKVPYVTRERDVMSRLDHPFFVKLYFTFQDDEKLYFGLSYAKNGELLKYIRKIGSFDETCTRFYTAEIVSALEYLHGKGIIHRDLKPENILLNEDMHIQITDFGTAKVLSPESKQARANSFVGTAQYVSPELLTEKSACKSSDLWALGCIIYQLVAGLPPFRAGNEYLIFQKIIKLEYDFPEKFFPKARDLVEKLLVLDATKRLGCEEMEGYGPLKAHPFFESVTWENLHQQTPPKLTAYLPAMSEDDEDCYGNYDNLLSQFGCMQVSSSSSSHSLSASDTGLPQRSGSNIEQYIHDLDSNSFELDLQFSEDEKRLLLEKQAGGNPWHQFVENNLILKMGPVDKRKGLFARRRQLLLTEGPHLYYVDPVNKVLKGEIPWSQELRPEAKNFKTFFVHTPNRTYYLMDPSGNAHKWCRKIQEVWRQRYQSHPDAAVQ
Protocol: Substrate phosphorylation assays are carried out as follows:
Biotinylated-hAKT1: Human AKT1 (containing amino acid residues 136-480, as annotated by National Center for Biotechnology Information (NCBI) accession number AAL55732.1, with a MetLysLysHis6 N-terminal addition) is purified to >90% from lysate of baculovirus expression by Nickel Chelating ProBond resin (InVitrogen), Q-Sepharose Fast Flow, and Superdex 200 size exclusion chromatography. Biotinylation is achieved using EZ-Link Sulfo-NHS-LC Biotin (Pierce). Samples, in 25 mM HEPES, pH 7.5, 200 mM NaCl, 2 mM DTT, and 30% glycerol are stored at −80C until use.
(§1) Full-length human 3-Phosphoinositide Dependent protein Kinase-1 (hPDK1; National Center for Biotechnology Information (NCBI) accession number AAH39158.1 with a MetGlyHis6 N-terminal addition) is purified from baculovirus expression in Sf9 cells. Purity of approximately 80% is achieved by the use of chelation chromatography (Ni-NTA Superflow) and desalting columns. Samples, in 25 mM HEPES, 150 mM NaCl, 2.5 mM DTT, 0.05% Triton, 30% glycerol, pH 8.0, are stored at −80° C. until use.
The 39 amino acid biotinylated-PDKtide peptide Seq. ID No. 1: (Biotin-Ahx-[…]) was custom synthesized by 21st Century Biochemicals. […] The concentration was confirmed by quantitative amino acid analysis.
Scintillation Proximity (LEADseeker) Kinase Assay of Purified hPDK1:
Assays are performed in 384-well microtiter plates (Greiner, Catalog No. 784075). The reaction volume (10 μl) contains, in final concentrations, 25 mM MOPS (pH 7.5), 10 mM MgCl2, 50 mM KCl, 0.1 mg/ml BSA, 1 μM ATP, 3 uCi/ml ^33PγATP, 5 mM DTT, 1 mM CHAPS or 0.05% Tween20, 0.35 μM AKT1 biotinylated protein, and 10 nM hPDK1.
Compounds, titrated in DMSO, are evaluated at eleven concentrations ranging from 50 μM to 2 μM. […] Reactions are stopped after 3 hours at room temperature by the addition of 50 mM EDTA, 5 mg/ml LEADseeker beads (GE Healthcare) in PBS (10 ul). Beads are allowed to settle overnight, and samples are imaged on Viewlux (PerkinElmer).
(§2) The data for compound concentration responses were plotted as % Inhibition, calculated with the data reduction formula 100*(1−[(U1−C2)/(C1−C2)]), versus concentration of compound, where
(§3) Data were fitted to the curve described by:
TR-FRET Kinase Assay of Purified hPDK1:
Assays are performed in 384-well microtiter plates (Greiner, Catalog No. 784076).
As previously described for the Scintillation Proximity protocol, hPDK1 is pre-incubated (30 minutes at room temperature) with compounds before initiating phosphorylation of AKT1 by addition of substrate to the hPDK1 and compound mix. Reactions are stopped after 4-6 hours at room temperature by the addition to final concentrations of 0.02 M EDTA, 0.0875 μM Streptavidin APC (PerkinElmer), 0.03 μM AKT1 (phospho T308) antibody (Abcam Inc.), 0.00375 μM Lance Eu-labeled anti rabbit IgG Antibody (PerkinElmer). Antibody binding reaches equilibrium in 30 minutes before signal is read on an EnVision™ 2103 Multilabel Reader (PerkinElmer). APC Signals are normalized to Europium signal. Data processing is the same as described for the Scintillation Proximity assay with the exception of the generation of the “C2” control by addition of buffer without hPDK1 to control wells at t=0 instead of EDTA.
(§4) Scintillation Proximity (LEADseeker) Kinase Assay of Purified hPDK1 using Biotinylated-PDKtide Peptide:
(§5) Assays are performed in 384-well microtiter plates (Greiner, Catalog No. 784075). The reaction volume (10 μl) contains, in final concentrations, 25 mM MOPS (pH 7.5), 10 mM MgCl2, 50 mM KCl, 0.1 mg/ml BSA, 1 μM ATP, 3 uCi/ml ^33PγATP, 5 mM DTT, 0.5 mM CHAPS, 1 μM biotinylated-PDKtide peptide, and 0.5 nM hPDK1.
Compounds, titrated in DMSO, are evaluated at eleven concentrations ranging from 25 μM to 0.4 pM. […] Reactions are stopped after 4 hours at room temperature by the addition of 50 mM EDTA, 5 mg/ml LEADseeker beads (GE Healthcare) in PBS (10 ul).

full length PDK1 [2] = target: T1, full length PDK1; test: Scintillation Proximity (LEADseeker) kinase assay of purified hPDK1 using biotinylated-PDKtide peptide; type: biochemical; details: in at least one experimental run; PDKtide substrate; read-out: IC50 against full length PDK1 using the PDKtide substrate assay
Protocol: as §1
The 39 amino acid biotinylated-PDKtide peptide Seq. ID No. 1: (Biotin-Ahx-[…]) was custom synthesized by 21st Century Biochemicals. The peptide was >95% pure and dissolved in HPLC grade water to give a final concentration of 1.1 mM. The concentration was confirmed by quantitative amino acid analysis.
as §4, §5
Compounds, titrated in DMSO, are evaluated at eleven concentrations ranging from 25 μM to 0.4 pM. […] No effect on activity relative to controls without DMSO is observed for hPDK1 at these DMSO amounts. hPDK1 is pre-incubated, 30 minutes at room temperature, with compounds before initiating phosphorylation of biotinylated-PDKtide peptide by addition of substrate to hPDK1/compound. Reactions are stopped after 4 hours at room temperature by the addition of 50 mM EDTA, 5 mg/ml LEADseeker beads (GE Healthcare) in PBS (10 ul). Beads are allowed to settle overnight, and samples are imaged on Viewlux (PerkinElmer).
as §2, §3
The results for each compound were recorded as pIC50 calculated as follows: […]

[3] = system: AKT phosphorylation at T308 in PC-3 cells; test: Phospho-AKT (T308) ELISA in PC3 cells; type: cell-based; details: Homo sapiens, 6 hours compound treatment, in at least one experimental run, read-out: IC50 for inhibition of AKT phosphorylation at T308 in PC-3 cells
Protocol: Phospho-AKT (S473, T308, Total AKT) and phospho-RSK ELISA
PC3 cells (ATCC, Manassas, Va.) were plated in 96-well flat bottom plates (Corning, Lowell, Mass.) at a density of 15,000 cells/well in RPMI 1640 medium supplemented with 10% FBS. Cells were incubated at 37° C., 5% CO2 for 18-20 h. Compounds (dissolved in 100% DMSO) were diluted in an 11-point 3-fold dilution in DMSO. Compound dilution stocks were further diluted in RPMI 1640 with 10% FBS and added to each cell well. DMSO without compound was used in control wells. Final concentration of DMSO in each well was 0.15%. After 6 hours at 37° C. cells were washed with cold PBS (without calcium or magnesium) and lysed in lysis buffer (Meso Scale Discovery, Gaithersburg, Md.) supplemented with 1 protease inhibitor tablet/10 ml (Roche, Indianapolis, Ind.), 10 mM NaF, and 200 μl/10 ml Sigma phosphatase inhibitor 1 & 2 (Sigma Aldrich, St Louis, Mo.) for 30 min at 4° C. All washes were performed on a Bio Tek ELx405 plate washer (Bio Tek Instruments, Winooski, Vt.).
ELISA plates (Meso Scale Discovery; AKT Duplex, cat. N41100B-1; phospho AKT, cat. N411CAB-1; RSK, cat. N41ZB-1) were prepared by the addition of blocking buffer (3% Blocker A diluted in wash buffer (Meso Scale Discovery) for AKT duplex assay and phospho AKT assays; 5% Blocker A/1% Blocker B in Tris-buffered saline for RSK) for 1 hour and washed with wash buffer. Lysates were transferred to assay wells and incubated overnight at 4° C. Following washing with wash buffer, detection buffer (1% Blocker A in wash buffer for AKT duplex and phospho AKT or 1% Blocker A in TBS for RSK) with appropriate antibodies was added. Detection of AKT duplex and phospho AKT was carried out using a sulfo-tagged detection antibodies (Meso Scale Discovery). Detection of phospho-RSK was carried out sequentially with anti phospho-RSK1 (S221)/RSK2 (S227) (R&D systems, Minneapolis, Minn., cat. AF892) and goat anti-rabbit sulfo-tag antibody (cat R32AB-1; Meso Scale Discovery). Plates were incubated for 1 hour at room temperature and washed with wash buffer. Plates were read on a SECTOR™ Imager 6000 (Meso Scale Discovery) using Workbench software (Meso Scale Discovery) following addition of read buffer (Meso Scale Discovery) to each well. For analysis, phospho-AKT (S473) signals were normalized to total AKT, while phospho-AKT (T308) and phospho-RSK signals were analyzed without normalization. All values were expressed as percent of the DMSO-treated controls. IC50s were determined from inhibition curves using XLfit4 software (IDBS, Guildford, UK).

Row | SMILES | IC50 (full length PDK1 [1]) | IC50 (full length PDK1 [2]) | IC50 [3]
1 | Nc1nc(NC2(Cc3ccccc3)CC2)cc(-c2ccc3c(N)n[nH]c3c2)n1 [Example 61, 6-(3-Amino-1H-indazol-6-yl)-N^4-[1-(phenylmethyl)cyclopropyl]-2,4-pyrimidinediamine] | < 100 nM | 10 nM | –
2 | CC[C@@H]1CO[C@H](C(=O)NC2CCCCC2)CN1c1cc(-c2ccc3c(N)n[nH]c3c2)nc(N)n1 [Example 173, (2S,5R)-4-[2-Amino-6-(3-amino-1H-indazol-6-yl)-4-pyrimidinyl]-N-cyclohexyl-5-ethyl-2-morpholinecarboxamide] | < 20 nM | 7.9 nM | –
3 | CC[C@@H]1COCCN1c1cc(-c2ccc3c(N)n[nH]c3c2)nc(NC)n1 [Example 177, 6-[6-[(3R)-3-Ethyl-4-morpholinyl]-2-(methylamino)-4-pyrimidinyl]-1H-indazol-3-amine] | < 150 nM | 25 nM | –
4 | COc1cc(-c2cc(N3C[C@H](C)C[C@@H](NC(=O)OC(C)(C)C)C3)nc(N)n2)cc2[nH]nc(N)c12 [Example 214, 1,1-Dimethylethyl((3R,5R)-1-[2-amino-6-[3-amino-4-(methyloxy)-1H-indazol-6-yl]-4-pyrimidinyl]-5-methyl-3-piperidinyl)carbamate] | < 50 nM | 2 nM | –
5 | C[C@@H]1C[C@@H](N(C)C(=O)OC(C)(C)C)CN(c2cc(-c3ccc4c(N)n[nH]c4c3)nc(N)n2)C1 [Example 221, 1,1-Dimethylethyl{(3R,5R)-1-[2-amino-6-(3-amino-1H-indazol-6-yl)-4-pyrimidinyl]-5-methyl-3-piperidinyl}methylcarbamate] | < 50 nM | – | < 1000 nM
